Test results published in patent US6660501B2, “Production of proteins by cell culture” (Lonza Group, AG, priority 1986, dated 2003).

Tests used:
hybridoma cell line C = test: Harvest antibody titre, hybridoma cell line C; format: cell-based; settings: DMEM + 10% FCS, 0.50 mM butyrate, control 51
Protocol: (§1) Hybridoma cells were grown in suspension culture in either serum-free medium (see Example 1) or in DMEM supplemented with 10% (v/v), heat inactivated foetal calf serum. Cells were cultured in either roller bottles or in shake-flasks, as in Example 1. Sodium butyrate was added to cultures immediately after inoculation.

hybridoma cell line F = test: Harvest antibody titre, hybridoma cell line F; format: cell-based; settings: SFM + 5% FCS, 0.50 mM butyrate, control 90
Protocol: (§2) […] Cells were cultured in either roller bottles or in shake-flasks, as in Example 1. Sodium butyrate was added to cultures immediately after inoculation.

hybridoma cell line L = test: Harvest antibody titre, hybridoma cell line L; format: cell-based; settings: SFM, control 34
Protocol: as §1

hybridoma cell line K = test: Harvest antibody titre, hybridoma cell line K; format: cell-based; settings: SFM + 1% FCS, 0.50 mM butyrate, control 15
Protocol: as §1

hybridoma cell line B = test: Harvest antibody titre, hybridoma cell line B; format: cell-based; settings: SFM + 10% FCS, control 173
Protocol: as §1

NT1/19 cells = test: Effect of varying alkanoates on antibody production from hybridoma cells; format: cell-based; settings: for AVERAGE DATA FROM EXP. #1 & #2: average of relative productivity, control 100.00; for PRODUCTIVITY EXP #2: control 2.39
Protocol: The IgM secreting mouse hybridoma cell line NB1/19 was grown in suspension culture in Dulbeccos Modified Eagles Minimum (DMEM) serum-free medium containing albumin, insulin, transferrin, gentamycin and other additives as required to cultivate cells in suspension culture. The NB1/19 cell line produces a mouse monoclonal antibody having specificity for an antigenic determinant of human B-type blood cells. The preparation of this call line is described in detail in the specification of British Patent GB 2097425B. It will be appreciated, however, that other hybridoma cell lines may be used in place of this particular cell line as appropriate in this and other examples.
The cells were grown to a viable cell density of 1.0-1.5×10^6 cells/ml. Viable cell density was determined by counting the number of cells which exclude trypan blue, a staining agent. A sample of the suspension culture was diluted in a serum-free medium to a density of about 1.3×10^5 cells/ml. Aliquots of 50 ml in volume were dispensed into shake flasks and sodium butyrate added at concentrations of 0.1 mM, 0.3 mM, 0.5 mM and 1.0 mM.
The shake flasks were gassed with 5% CO2-95% air, and sealed and incubated with shaking at 37° C. for up to 207 hours. (Table 1). Samples ([…]) were removed from the culture by pipette. 100 μl was used to determine viable cell count and the reminder centrifuged at 300×g for five minutes. Supernatants were stored at −20° C. prior to antibody determination by enzyme linked immunosorbent assay (ELISA).
NT1/19 cells were cultured as in Example 1. Varying straight chain sodium alkanoate salts (propionate, butyrate, bentanoate or hexanoate) were added to the inoculum at the concentrations indicated in Table 5.

[1] = tested on: CBMG human growth hormone producing cells; test: Production of recombinant human growth hormone by CBMG cells (immunoradiometric assay); format: cell-based; settings: serum-free maintenance medium, control 1.0
Protocol: The molecular biology of adherent CBMG human growth hormone producing cells has been described (G. N. Pavlakis et al PNAS (USA) Vol. 80 pp 397-401 (1983)).
CBMG cells were inoculated into tissue culture flasks at a density of 0.7×10^5 cells/cm^2 in Dulbeccos Modified Eagles Minimum (DMEM) supplemented with 10% foetal calf serum.
After the cells in culture had grown to confluency, the DMEM serum supplemented medium was replaced by serum-free DMEM maintenance medium. Sodium butyrate was added at 1 mM and 5 mM after transferring the cells from serum supplemented medium to maintenance medium. Levels of human growth hormone in the culture supernatant were measured after 48 hours by immunoradiometric assay.

hybridoma cell line I = test: Harvest antibody titre, hybridoma cell line I; format: cell-based; settings: DMEM + 5% FCS, control 113
Protocol: as §2

hybridoma cell line A = test: Harvest antibody titre, hybridoma cell line A; format: cell-based; settings: SFM, control 28
Protocol: as §1

hybridoma cell line J = test: Harvest antibody titre, hybridoma cell line J; format: cell-based
Protocol: as §1

[2] = tested on: mouse C127 cell line producing recombinant tissue plasminogen activator (tPA); test: Production of recombinant tPA from C127 cell line on microcarriers (fibrin-agar method; nuclei count); format: cell-based; settings: for CONCENTRATION OF TPA PER ML: control 100
Protocol: A mouse C127 cell line producing recombinant tissue plasminogen activator (tPA) was cultured on microcarriers (gelibeads, K. C. Biologicals) in spinner vessels (Bellco). The growth medium was DMEM supplemented with 10% foetal calf serum. The concentration of microcarriers were 5 grams (dryweight) per liter of medium. Calls were inoculated at a density of 1×10^5 cells per ml.
After the cells had grown to confluency on the surface of the microcarriers, growth medium was aspirated and replaced with a protein-free DMEM-based maintenance medium containing the butyrate. Control cultures received no butyrate.
Cell density was determined by counting nuclei which were released from cells by hypotonic lysis (ref. Absher, in “Tissue Culture Methods and Applications”, Kruse & Patterson. Academic Press 1973). The concentration of tPA in the supernatant was assayed using the fibrin-agar method.

hybridoma cell line E = test: Harvest antibody titre, hybridoma cell line E; format: cell-based; settings: SFM, control 46
Protocol: as §1

hybridoma cell line H = test: Harvest antibody titre, hybridoma cell line H; format: cell-based; settings: SFM, 0.50 mM butyrate, control 62
Protocol: as §1

HeLa-cell cultures = settings: cited from earlier work

CCCC(=O)[O-].[Na+] [sodium butyrate]
HARVEST ANTIBODY TITER (hybridoma cell line C): 71 mg/L
HARVEST ANTIBODY TITER (hybridoma cell line F): 132 mg/L
HARVEST ANTIBODY TITER (hybridoma cell line L; 0.25 mM butyrate): 50 mg/L
HARVEST ANTIBODY TITER (hybridoma cell line L; 0.50 mM butyrate): 58 mg/L
HARVEST ANTIBODY TITER (hybridoma cell line K): 26 mg/L
HARVEST ANTIBODY TITER (hybridoma cell line B; 0.35 mM butyrate): 232 mg/L
HARVEST ANTIBODY TITER (hybridoma cell line B; 0.50 mM butyrate): 240 mg/L
AVERAGE DATA FROM EXP. #1 & #2 (NT1/19 cells; 0.50 mM alkanoate): 204.39
PRODUCTIVITY EXP #2 (NT1/19 cells; 0.50 mM alkanoate): 4.7 ug antibody per 10^5 cells
PRODUCTIVITY EXP. #1 (NT1/19 cells; 0.50 mM alkanoate, control 3.30): 7.00 ug antibody per 10^5 cells
AVERAGE DATA FROM EXP. #1 & #2 (NT1/19 cells; 1.00 mM alkanoate): 368.20
PRODUCTIVITY EXP #2 (NT1/19 cells; 1.00 mM alkanoate): 8.80 ug antibody per 10^5 cells
Concentration of hGH in supernatant ([1]; 1 mM sodium butyrate): 1.1 arbitrary units/48 hours
Concentration of hGH in supernatant ([1]; 5 mM sodium butyrate): 2.3 arbitrary units/48 hours
HARVEST ANTIBODY TITER (hybridoma cell line I; 0.35 mM butyrate): 135 mg/L
HARVEST ANTIBODY TITER (hybridoma cell line I; 0.50 mM butyrate): 154 mg/L
HARVEST ANTIBODY TITER (hybridoma cell line A; 0.35 mM butyrate): 35 mg/L
HARVEST ANTIBODY TITER (hybridoma cell line A; 0.50 mM butyrate): 36 mg/L
HARVEST ANTIBODY TITER (hybridoma cell line J; DMEM + 10% FCS, 0.50 mM butyrate, control 32): 54 mg/L
HARVEST ANTIBODY TITER (hybridoma cell line J; DMEM + 10% FCS, 0.75 mM butyrate, control 32): 55 mg/L
HARVEST ANTIBODY TITER (hybridoma cell line J; SFM, 0.50 mM butyrate, control 37): 72 mg/L
HARVEST ANTIBODY TITER (hybridoma cell line J; SFM, 1.00 mM butyrate, control 37): 102 mg/L
CELL DENSITY ([2]; 0.5 mM butyrate, maintenance period 46 hours, control 10.8): 11.1 x10^5 cells/ml
CONCENTRATION OF TPA PER ML ([2]; 0.5 mM butyrate, maintenance period 46 hours): 159 arbitrary units
CELL DENSITY ([2]; 0.5 mM butyrate, maintenance period 92 hours, control 13.7): 10.3 x10^5 cells/ml
CONCENTRATION OF TPA PER ML ([2]; 0.5 mM butyrate, maintenance period 92 hours): 143 arbitrary units
CELL DENSITY ([2]; 0.5 mM butyrate, maintenance period 140 hours, control 19.1): 12.3 x10^5 cells/ml
CONCENTRATION OF TPA PER ML ([2]; 0.5 mM butyrate, maintenance period 140 hours): 186 arbitrary units
CELL DENSITY ([2]; 1.0 mM butyrate, maintenance period 46 hours, control 10.8): 11.5 x10^5 cells/ml
CONCENTRATION OF TPA PER ML ([2]; 1.0 mM butyrate, maintenance period 46 hours): 191 arbitrary units
CELL DENSITY ([2]; 1.0 mM butyrate, maintenance period 92 hours, control 13.7): 9.2 x10^5 cells/ml
CONCENTRATION OF TPA PER ML ([2]; 1.0 mM butyrate, maintenance period 92 hours): 157 arbitrary units
CELL DENSITY ([2]; 1.0 mM butyrate, maintenance period 140 hours, control 19.1): 9.4 x10^5 cells/ml
CONCENTRATION OF TPA PER ML ([2]; 1.0 mM butyrate, maintenance period 140 hours): 236 arbitrary units
CELL DENSITY ([2]; 2.5 mM butyrate, maintenance period 46 hours, control 10.8): 9.6 x10^5 cells/ml
CONCENTRATION OF TPA PER ML ([2]; 2.5 mM butyrate, maintenance period 46 hours): 945 arbitrary units
CELL DENSITY ([2]; 2.5 mM butyrate, maintenance period 92 hours, control 13.7): 7.6 x10^5 cells/ml
CONCENTRATION OF TPA PER ML ([2]; 2.5 mM butyrate, maintenance period 92 hours): 1782 arbitrary units
CELL DENSITY ([2]; 2.5 mM butyrate, maintenance period 140 hours, control 19.1): 6.6 x10^5 cells/ml
CONCENTRATION OF TPA PER ML ([2]; 2.5 mM butyrate, maintenance period 140 hours): 3468 arbitrary units
HARVEST ANTIBODY TITER (hybridoma cell line E; 0.35 mM butyrate): 56 mg/L
HARVEST ANTIBODY TITER (hybridoma cell line E; 0.50 mM butyrate): 86 mg/L
HARVEST ANTIBODY TITER (hybridoma cell line H): 109 mg/L
human choriogonadotropin synthesis (HeLa-cell cultures; 1 mM, Ghosh et al, Cox & McClure): induce human choriogonadotropin synthesis
cell growth (HeLa-cell cultures; butyrate treatment): inhibited cell growth
